Data published in patent US20090005424A9, “Composition and Method for Treating Fibrotic Diseases” (priority 2005, published 2009).
Marks after values point to notes of the source that are not given here.

Columns and labels:
Kidney Fibroblast = assay: MTT proliferation assay, mouse kidney fibroblast; type: cell-based
Procedure: Cell proliferation was measured by MTT assay. DMEM with 10% fetal serum was used as cell culture medium. The cells were prepared in suspension (1×10^5/ml), and 100 μL of the suspension was transferred to each well of a 96 wells plate. Once the cells were attached to the plastic, the culture was changed to serum free medium and continued for another 24 hours. The serum free medium was aspirated, and various concentrations of 1-(3′-fluorophenyl)-5-methyl-2(1H)-pyridone (AKF-PD) 1-(3′-bromophenyl)-5-methyl-2(1H)-pyridone (AKF-BR) or PIRFENIDONE (PFD) in 10% serum medium were added into each well with 5 replicates for each concentration. The cells were stained with MTT (10 μL per well) at 24, 48, and 72 hours post drug treatment. After 4 hrs of incubation, the medium with MTT was aspirated from each well. One hundred μL MTT solvent was added to each well for 15 min. The dissolved MTT was then measured with a plate reader at 570 nm.

[1] = test system: Rat Myocardiac Fibroblasts; assay: MTT proliferation assay, rat myocardiac fibroblasts; type: cell-based
Procedure: (§1) In the following examples, myocardiac fibroblasts, skin scar forming fibroblast and human peritoneal mesothelial cells are primary cultures prepared according to common procedure. Other cells are commercially purchased. 1-(3-fluorophenyl)-5-methyl-2(1H)-pyridone (AKF-PD) is prepared as a suspension in 5% carboxymethylcellulose.
(§2) Cell proliferation was measured by MTT assay. DMEM with 10% fetal serum was used as cell culture medium. The cells were prepared in suspension (1×10^5/ml), and 100 μL of the suspension was transferred to each well of a 96 wells plate. Once the cells were attached to the plastic, the culture was changed to serum free medium and incubated for another 24 hours. Then, the serum free medium was aspirated, and various concentrations of 1-(3′-fluorophenyl)-5-methyl-2(1H)-pyridone (AKF-PD) or PIRFENIDONE (PFD) in 10% serum medium were added into each well with 5 replicates for each concentration. The cells were stained with MTT (10 μL per well) at 12, 24, or 48 hours post drug treatment. After 4 hrs of incubation, the medium with MTT was aspirated from each well. One hundred μL MTT solvent was added to each well for 15 min, and the dissolved MTT was measured with a plate reader at 570 nm.

Human Stellate Cells = assay: MTT proliferation assay, human stellate cells; type: cell-based
Procedure: as §2, with “MTT was then measured with” for “MTT was measured with”

[2] = test system: Human Skin Scar Forming Fibroblasts; assay: MTT proliferation assay, human skin scar forming fibroblasts; type: cell-based
Procedure: as §1, §2

[3] = test system: SD rat, renal interstitial fibrosis induced by surgical ligation of single side ureter; assay: Rat ureter ligation model of renal interstitial fibrosis, AKF-PD vs PFD (Example 12); type: in vivo; conditions: ureter-ligated rats; PFD 500 mg/kg/d, AKF-PD 500 mg/kg/d by gavage; 14 days post surgery
Procedure: Anti-fibrotic effect of AKF-PD was tested on a SD rat model for renal interstitial fibrosis induced by surgical ligation of single side ureter. Male SD rats (180 g˜220 g) were randomly divided into disease model group, PFD (500 mg/kg/d) group and AKF-PD (500 mg/kg/d) group. […] The respective drugs were administrated by gavage to rats in the groups of PFD and AKF-PD from one day prior to the procedure to 14 days post surgical procedure. Normal saline was administrated in a similar fashion to the rats in the groups of disease model. The animals were sacrificed 14 days after surgical procedure and their kidney were removed for pathological (HE staining) examination.

[4] = test system: ICR mice injected with bleomycin; assay: Bleomycin-induced mouse pulmonary fibrosis, histological score of lung tissue; type: in vivo; conditions: AKF-PD and PFD 500 mg/kg, captopril 12.5 mg/kg by gavage day 1 to 28, Szapiel's method
Procedure: Under regular care condition, 7-10 weeks old, male, institute of cancer research (ICR) mice, weight 28-39 g, were randomly grouped as normal control, disease, disease/AKF-PD, disease/PFD and disease Captopril group.
Control group was injected with normal saline once day from day 2 to 15 days. Disease, disease/AKF-PD, disease/PFD and disease/captopril groups were injected with bleomycin once day from day 2 to 15. Control and disease groups were given 0.5% CMC by gavage once a day from day 1 to day 28. 500 mg/kg of AKF-PD CMC suspension and PD CMC suspension and 12.5 mg/kg captopril in saline were administered to respective groups by gavage once day from day 1 to day 28. All animals were sacrificed on day 29 and their lungs were removed for pathological (HE staining) examination.
Histological scoring for the lung tissue was done according Szapiel's method.

For `Cc1ccc(=O)n(-c2ccccc2)c1` [PFD, 5-methyl-1-phenyl-2(1H)-pyridone, reference compound], the “Optical Density at 570 nm” value (Kidney Fibroblast; 100 μg/ml, 24 h) was 0.5911 ± 0.1002, the “Optical Density at 570 nm” value (Kidney Fibroblast; 100 μg/ml, 48 h) was 0.5844 ± 0.0171 and the “Optical Density at 570 nm” value (Kidney Fibroblast; 100 μg/ml, 72 h) was 0.5264 ± 0.1530. The “Optical Density at 570 nm” value (Kidney Fibroblast; 500 μg/ml, 24 h) was 0.5877 ± 0.1204, the “Optical Density at 570 nm” value (Kidney Fibroblast; 500 μg/ml, 48 h) was 0.5450 ± 0.0196 and the “Optical Density at 570 nm” value (Kidney Fibroblast; 500 μg/ml, 72 h) was 0.4798 ± 0.2355. The “Optical Density at 570 nm” value (Kidney Fibroblast; 1000 μg/ml, 24 h) was 0.5798 ± 0.0149, the “Optical Density at 570 nm” value (Kidney Fibroblast; 1000 μg/ml, 48 h) was 0.5272 ± 0.0229 and the “Optical Density at 570 nm” value (Kidney Fibroblast; 1000 μg/ml, 72 h) was 0.4269 ± 0.0302. The “order of inhibitory effect” value (Kidney Fibroblast; kidney fibroblast) was “AKF-PD>AKF-BR>pirfenidone”, the “Optical Density at 570 nm” value ([1]; 100 μg/ml, 12 h) was 0.330 ± 0.014 and the “Optical Density at 570 nm” value ([1]; 100 μg/ml, 24 h) was 0.429 ± 0.009. The “Optical Density at 570 nm” value ([1]; 100 μg/ml, 48 h) was 0.654 ± 0.007*^+, the “Optical Density at 570 nm” value ([1]; 500 μg/ml, 12 h) was 0.329 ± 0.013 and the “Optical Density at 570 nm” value ([1]; 500 μg/ml, 24 h) was 0.411 ± 0.006. For the same compound, the “Optical Density at 570 nm” value ([1]; 500 μg/ml, 48 h) was 0.612 ± 0.014***^++, the “Optical Density at 570 nm” value ([1]; 1000 μg/ml, 12 h) was 0.331 ± 0.009 and the “Optical Density at 570 nm” value ([1]; 1000 μg/ml, 24 h) was 0.403 ± 0.010**^+. The “Optical Density at 570 nm” value ([1]; 1000 μg/ml, 48 h) was 0.597 ± 0.013***^+++, the “Optical Density at 570 nm” value ([1]; 2500 μg/ml, 12 h) was 0.329 ± 0.008 and the “Optical Density at 570 nm” value ([1]; 2500 μg/ml, 24 h) was 0.392 ± 0.009**^+. The “Optical Density at 570 nm” value ([1]; 2500 μg/ml, 48 h) was 0.566 ± 0.027, the “Optical Density at 570 nm” value (Human Stellate Cells; 100 μg/ml, 12 h) was 0.206 ± 0.003 and the “Optical Density at 570 nm” value (Human Stellate Cells; 100 μg/ml, 24 h) was 0.371 ± 0.001. The “Optical Density at 570 nm” value (Human Stellate Cells; 100 μg/ml, 48 h) was 0.447 ± 0.003, the “Optical Density at 570 nm” value (Human Stellate Cells; 500 μg/ml, 12 h) was 0.202 ± 0.001 and the “Optical Density at 570 nm” value (Human Stellate Cells; 500 μg/ml, 24 h) was 0.345 ± 0.002. For the same compound, the “Optical Density at 570 nm” value (Human Stellate Cells; 500 μg/ml, 48 h) was 0.413 ± 0.001***^++, the “Optical Density at 570 nm” value (Human Stellate Cells; 1000 μg/ml, 12 h) was 0.201 ± 0.001 and the “Optical Density at 570 nm” value (Human Stellate Cells; 1000 μg/ml, 24 h) was 0.330 ± 0.001***^++. The “Optical Density at 570 nm” value (Human Stellate Cells; 1000 μg/ml, 48 h) was 0.402 ± 0.001***^++, the “Optical Density at 570 nm” value (Human Stellate Cells; 2500 μg/ml, 12 h) was 0.198 ± 0.001 and the “Optical Density at 570 nm” value (Human Stellate Cells; 2500 μg/ml, 24 h) was 0.278 ± 0.001***^+. For the same compound, the “Optical Density at 570 nm” value (Human Stellate Cells; 2500 μg/ml, 48 h) was 0.306 ± 0.002***^+++, the “Optical Density at 570 nm” value ([2]; 100 μg/ml, 12 h) was 0.194 ± 0.004 and the “Optical Density at 570 nm” value ([2]; 100 μg/ml, 24 h) was 0.250 ± 0.003. For the same compound, the “Optical Density at 570 nm” value ([2]; 100 μg/ml, 48 h) was 0.366 ± 0.006, the “Optical Density at 570 nm” value ([2]; 500 μg/ml, 12 h) was 0.191 ± 0.008 and the “Optical Density at 570 nm” value ([2]; 500 μg/ml, 24 h) was 0.245 ± 0.004*^+. For the same compound, the “Optical Density at 570 nm” value ([2]; 500 μg/ml, 48 h) was 0.350 ± 0.003***^++, the “Optical Density at 570 nm” value ([2]; 1000 μg/ml, 12 h) was 0.190 ± 0.008 and the “Optical Density at 570 nm” value ([2]; 1000 μg/ml, 24 h) was 0.330 ± 0.001*^++. The “Optical Density at 570 nm” value ([2]; 1000 μg/ml, 48 h) was 0.328 ± 0.004***^++, the “Optical Density at 570 nm” value ([2]; 2500 μg/ml, 12 h) was 0.193 ± 0.004 and the “Optical Density at 570 nm” value ([2]; 2500 μg/ml, 24 h) was 0.278 ± 0.001***^+++. The “Optical Density at 570 nm” value ([2]; 2500 μg/ml, 48 h) was 0.264 ± 0.005, the “Histological Score for Interstitial Compartment” value [3] was 8.06 ± 2.41 and the “Histological Score for Lung Tissue, Mean” value [4] was 2.0909.
